Assay results taken from article PMC8401404 (Molecules, 2021).
Where a name gives a salt, the structure may show the parent alone. Read-outs that look alike come from different tables or passages of the source.

Experiments:
HCC827 [1] = test: BrdU proliferation assay, 2D cell culture; type: cell-based, human; conditions: HCC827, 2D, BrdU, n = 2, read-out: Proliferation Assay IC50 ± SD
Procedure: (§1) MTS assay gives us information about the number of living cells, in this case, metabolically active cells, whereas the BrdU proliferation assay gives a measure of the cell population in active division phase. Both assays were performed in 2D and 3D assay formats. For the 2D cell assay format, we used classic two-dimensional in vitro assays and as a 3D assay we used a hanging drop proliferation cell assay as previously described. We explored the activity of compounds on three human lung cancer cell lines, A549, HCC827 and NCI-H358. The compound activity was also tested on human lung fibroblast cell line MRC-5. A two-dimensional in vitro viability assay was performed on the MRC-5 cell line to see if tested compounds are cytotoxic on normal cell lines in low concentrations. […] 7.1.
(§2) Test compounds were synthesized by a research group at the Department of Organic Chemistry, Faculty of Chemical Engineering and Technology, University of Zagreb. […] Compounds were diluted 1:3. We transferred 500 nL (for 2D cell culture) or 400 nL (for 3D cell culture) of the compound from a mother plate to test plate by using Mosquito (TTP labtech). DMSO percentage in test concentrations was 0.5–1.0%. Starting concentration of the test compounds and standard compound doxorubicin was 50 µM (2D cell culture) or 100 µM (3D cell culture).
(§3) Cells were grown in 96-well cell star polystyrene plates. We seeded 10,000 cells/well in wells 4 h prior to the treatment with different compounds concentrations and incubated for 72 h. A cell viability assay was performed according to the manufacturer’s instructions, using CellTiter 96 aqueous solution, MTS kit (Promega, Madison, WI, USA). After 0.5–2 h of cell incubation with MTS in 2D cell culture, the plates were read using PE EnVision absorbance at 490 nm.
(§4) Proliferation assay was performed using Cell Proliferation ELISA, BrdU (Sigma, St. Louis, MO, USA). Briefly, 48 h hours after compound addition, 10 µM of BrdU was added to each well and incubated for the following 24 h. After incubation, a single cell suspension was made for 3D cell culture in the new 96-well plate. Plates were centrifuged and supernatants were removed from each plate (for 2D and 3D cell culture) followed by 60 min incubation at 60 °C. The rest of the proliferation assay was performed according to the manufacturer’s instructions.
(§5) Calculation of IC50 data, curves and QC analysis was performed by using Excel tools and GraphPadPrism software (La Jolla, CA, USA), v. […] QC criteria parameters (Z’, S:B, R2, HillSlope) were checked for every IC50 curve.

A549 [2] = test: BrdU proliferation assay, 2D cell culture; type: cell-based, human; conditions: A549, 2D, BrdU, n = 2, read-out: Proliferation Assay IC50 ± SD
Procedure: as §1, §2, §3, §4, §5

NCI-H358 [3] = test: BrdU proliferation assay, 2D cell culture; type: cell-based, human; conditions: NCI-H358, 2D, n = 2, read-out: Proliferation Assay IC50 ± SD
Procedure: as §1, §2, §3, §4, §5

HCC827 [4] = test: MTS cytotoxicity assay, 2D cell culture; conditions: read-out: Cytotoxicity Assay IC50 ± SD, HCC827 2D
Procedure: as §1, §2, §3, §5

A549 [5] = test: MTS cytotoxicity assay, 2D cell culture; conditions: read-out: Cytotoxicity Assay IC50 ± SD, A549 2D, 72 h, MTS, n = 2
Procedure: as §1, §2, §3, §5

NCI-H358 [6] = test: MTS cytotoxicity assay, 2D cell culture; conditions: read-out: Cytotoxicity Assay IC50 ± SD, NCI-H358 2D
Procedure: as §1, §2, §3, §5

E. coli ATCC 25922 = test: Broth microdilution testing (CLSI); type: cell-based, Escherichia coli; conditions: broth microdilution, 16–24h at 37 °C, read-out: MIC E. coli ATCC 25922
Procedure: (§6) Broth microdilution testing was performed according to CLSI (Clinical Laboratory Standards Institute) guidelines. MIC (minimal inhibitory concentration) value was defined as the last tested concentration of compound at which there is no visible growth of bacteria. […] Clinical and Laboratory Standards Institute (CLSI) guidelines.

[7] = Solubility in water (stock solutions)
ctDNA = test: Thermal melting experiments; type: binding, calf; conditions: r = [compound]/[polynucleotide] = 0.3, pH 7.0, sodium cacodylate buffer I = 0.05 mol dm^−3; error ±0.5 °C
Source text: (§7) The thermal stability of helices is usually affected by the non-covalent binding of small molecules to double-stranded nucleic acids. We determined the ΔTm value (the difference between the Tm value of free polynucleotide and a complex with a small molecule) for complexes of selected compounds with ctDNA and an alternating polynucleotide, poly(dAdT)2. […] Because of this, we determined ΔTm value with non-alternating AT-DNA, poly dA-poly dT as well.

calf thymus DNA (ctDNA) = test: Fluorimetric titrations with ctDNA; conditions: fluorescence titrations, Scatchard equation, pH 7.0, sodium cacodylate buffer I = 0.05 mol dm-3
Procedure: The UV/vis spectra were recorded on a Varian Cary 100 Bio spectrophotometer, CD spectra on JASCO J815 spectrophotometer and fluorescence spectra on a Varian Cary Eclipse spectrophotometer.
Spectrophotometric titrations were performed at pH = 7 (I = 0.05 mol dm^−3, sodium cacodylate buffer) by adding portions of polynucleotide solution into the solution of the studied compound for fluorimetric experiments and CD experiments were performed by adding portions of the compound stock solution into the solution of a polynucleotide. In fluorimetric experiments excitation wavelengths of λexc = 350, 370 and 390 nm were used to avoid the inner filter effect caused due by increasing absorbance of the polynucleotide (Figures S3 and S4). Emission was collected in the range λem = 400–600 nm (SI).
aTitration data were processed using Scatchard equation, correlation coefficients were >0.97-
0.99 for all calculated Ks

[8] = MTS cytotoxicity assay, 2D cell culture, normal lung fibroblasts; conditions: human, MRC-5 normal lung fibroblasts, 2D culture
Procedure: as §1, §2, §3, §5

HCC827 [9] = test: BrdU proliferation assay, 3D hanging drop cell culture; type: cell-based, human; conditions: HCC827, 3D, BrdU, n = 2, read-out: Proliferation Assay IC50 ± SD
Procedure: as §1, §2
(§8) Cells were grown in 96-well Perfecta 3D hanging drop plates 5000 cell/well for 4 days until spheres were formed (and checked under the microscope). After sphere formation cells were treated with compounds followed by 72 h incubation. Cell viability assay was performed according to the manufacturer’s instructions, using CellTiter GLO 3D for 3D cell culture (Promega); cell incubation was 5 min on the shaker followed by 25 min incubation in the dark. Plates were read using PE EnVision luminescence.
as §4, §5

A549 [10] = test: as above; type: cell-based, human; conditions: A549, 3D, BrdU, n = 2, read-out: Proliferation Assay IC50 ± SD
Procedure: as §1, §2, §8, §4, §5

NCI-H358 [11] = test: as above; type: cell-based, human; conditions: NCI-H358, 3D, n = 2, read-out: Proliferation Assay IC50 ± SD
Procedure: as §1, §2, §8, §4, §5

S. aureus ATCC 29213 = test: Broth microdilution testing (CLSI); type: cell-based, Staphylococcus aureus; conditions: 16–24h at 37 °C, read-out: MIC S. aureus ATCC 29213
Procedure: as §6

S. cerevisiae ATCC 7752 = test: Broth microdilution testing (CLSI); type: cell-based, Saccharomyces cerevisiae; conditions: broth microdilution, 16–24h at 37 °C, read-out: MIC S. cerevisiae ATCC 7752
Procedure: as §6

poly(dAdT)2 = test: Thermal melting experiments; type: binding; conditions: r = 0.3, pH 7.0, sodium cacodylate buffer I = 0.05 mol dm^−3; error ±0.5 °C
Source text: as §7

poly dA-poly dT = test: Thermal melting experiments; type: binding; conditions: r = 0.3, pH 7.0, sodium cacodylate buffer I = 0.05 mol dm^−3; error ±0.5 °C
Source text: as §7

HCC827 [12] = test: Cytotoxicity (viability) assay, 3D hanging drop cell culture; conditions: read-out: Cytotoxicity Assay IC50 ± SD, HCC827 3D
Procedure: as §1, §2, §8, §5

A549 [13] = test: as above; conditions: read-out: Cytotoxicity Assay IC50 ± SD, A549 3D
Procedure: as §1, §2, §8, §5

NCI-H358 [14] = test: as above; conditions: read-out: Cytotoxicity Assay IC50 ± SD, NCI-H358 3D
Procedure: as §1, §2, §8, §5

[15] = tested on: poly dA-poly dT (DNA, polymer) A/T; test: UV thermal melting at 260 nm; conditions: Na+ (sodium cacodylate, I = 0.05 M), pH 7.0, r = [compound]/[polynucleotide phosphate] = 0.3, error ±0.5, per base
[16] = tested on: poly(dAdT)2 (DNA, polymer) AT; test: CD titration; conditions: Na+ (sodium cacodylate, I = 0.05 M), pH 7.0, 25 °C, polynucleotide 3.0 × 10^-5 M
[17] = tested on: poly(dAdT)2 (DNA, polymer) AT; test: UV thermal melting at 260 nm; conditions: Na+ (sodium cacodylate, I = 0.05 M), pH 7.0, r = [compound]/[polynucleotide phosphate] = 0.3, error ±0.5, per base
[18] = tested on: human lung fibroblast cell line MRC-5; test: MTS cytotoxicity assay, 2D cell culture, normal lung fibroblasts; conditions: read-out: Cytotoxicity Assay IC50 ± SD; MRC-5 2D; MRC-5 normal lung fibroblasts, 2D, 72 h, MTS; n = 2
Procedure: as §1, §2, §3, §5

[19] = Staphylococcus aureus, ATCC29213, broth microdilution
[20] = Saccharomyces cerevisiae, ATCC7752

Compound	IC50 (HCC827 [1]; Homo sapiens)	IC50 (A549 [2]; Homo sapiens)	IC50 (NCI-H358 [3]; Homo sapiens)	IC50 (HCC827 [4]; Homo sapiens, HCC827, 72 h)	IC50 (A549 [5]; Homo sapiens, A549, 72 h)	IC50 (NCI-H358 [6]; Homo sapiens, NCI-H358, 72 h)	MIC (E. coli ATCC 25922; Escherichia coli, ATCC25922)	solubility [7]	ΔTm ctDNA (ctDNA)	Binding constants (logKs) with ctDNA (calf thymus DNA (ctDNA))	IC50 at 72 h [8]	IC50 (HCC827 [9]; Homo sapiens)	IC50 (A549 [10]; Homo sapiens)	IC50 (NCI-H358 [11]; Homo sapiens)	MIC (S. aureus ATCC 29213; [19])	MIC (S. cerevisiae ATCC 7752; [20])	ΔTm poly (dAdT)2 (poly(dAdT)2)	ΔTm Poly dA-poly dT (poly dA-poly dT)	IC50 (HCC827 [12]; Homo sapiens, HCC827, 72 h)	IC50 (A549 [13]; Homo sapiens, A549, 72 h)	other results
CC(C)NC(=N)c1ccc2nc(-c3ccc(-c4ccc(Cl)cc4)o3)sc2c1 [Compound 8, 2-[5-(4-Chlorophenyl)furan-2-yl]-6-N-isopropilamidinobenzothiazole hydrochloride]	13.5 ± 0.81 µM	8.78 ± 3.62 µM	6.68 ± 0.15 µM	6.26 ± 0.33 µM	6.75 ± 0.19 µM	6.48 ± 0.11 µM	> 100 µM	3000 µM	1.7 °C	6.3	9.88 ± 2.38 µM	17.8 ± 4.24 µM	19.9 ± 2.19 µM	11.3 ± 0.49 µM	12.5 µM	6.25 µM	3.6 °C	4.3 °C	20.5 ± 8.63 µM	9.31 ± 0.78 µM	IC50 (A549 [5]): 6.74 ± 0.19 µM; IC50 (NCI-H358 [14]; Homo sapiens, NCI-H358, 72 h): 16 ± 9.38 µM
CC(C)NC(=N)c1ccc2nc(-c3ccc(-c4ccc(Cl)cc4)o3)sc2c1	–	–	–	–	–	–	–	–	–	–	–	–	–	–	–	–	–	–	–	–	ΔTm [15]: 4.3 °C; binding [16]: yes; ΔTm [17]: 3.6 °C
N#CC(=Cc1ccc(-c2ccc([N+](=O)[O-])cc2)o1)c1nc2cc([N+](=O)[O-])ccc2[nH]1 [Compound 18, (E,Z)-2-(5(6)-Nitrobenzimidazol-2-yl)-3-[5-(4-nitrophenyl)furan-2-yl]acrylonitrile]	–	–	–	–	–	–	–	–	–	–	–	–	–	–	–	–	–	–	–	–	IC50 (HCC827 [1]): > 50 µM; IC50 (A549 [2]): > 50 µM; IC50 (NCI-H358 [3]): > 50 µM; IC50 (HCC827 [4]; 72 h, MTS, n = 2): > 50 µM; IC50 (A549 [5]): > 50 µM; IC50 (NCI-H358 [6]; 72 h, MTS, n = 2): 3.5 ± 1.14 µM; MIC (E. coli ATCC 25922): >100 µM; IC50 [18]: > 50 µM; IC50 (HCC827 [9]): > 100 µM; IC50 (A549 [10]): > 100 µM; IC50 (NCI-H358 [11]): > 100 µM; MIC (S. aureus ATCC 29213; broth microdilution): >100 µM; MIC (S. cerevisiae ATCC 7752): >100 µM; IC50 (HCC827 [12]; HCC827, 3D hanging drop spheres, 72 h, n = 2): > 100 µM; IC50 (A549 [13]; A549, 3D hanging drop spheres, 72 h, n = 2): > 100 µM; IC50 (NCI-H358 [14]; NCI-H358, 3D hanging drop spheres, 72 h, n = 2): > 100 µM
Cl.Clc1ccc(-c2ccc(-c3nc4ccc(C5=NCCN5)cc4s3)o2)cc1 [Compound 9, 2-[5-(4-Chlorophenyl)furan-2-yl]-6-(4,5-Dihydro-1H-imidazol-2-yl)benzothiazole hydrochloride]	8.69 ± 2.79 µM	9.97 ± 5.37 µM	5.57 ± 0.81 µM	5.9 ± 0.58 µM	4.39 ± 0.79 µM	4.48 ± 0.3 µM	> 100 µM	1320 µM	1.8 °C	6.1	6.65 ± 0.18 µM	20.3 ± 13.9 µM	17 ± 3.53 µM	6.39 ± 3.29 µM	25 µM	3.13 µM	4.6 °C	15.2 °C	20 ± 7.92 µM	16.8 ± 2.61 µM	ΔTm [15]: 15.2 °C; binding [16]: yes; melting point: 293 to 297 °C; ΔTm [17]: 4.6 °C; IC50 (NCI-H358 [14]; Homo sapiens, NCI-H358, 72 h): 15.49 ± 0.07 µM
CC(C)NC(=N)c1ccc2nc(-c3ccc(-c4ccc([N+](=O)[O-])cc4)o3)sc2c1 [Compound 5, 2-[5-(4-Nitrophenyl)furan-2-yl]-6-N-isopropilamidinobenzothiazole hydrochloride]	13.7 ± 3.13 µM	4.76 ± 1.03 µM	3.56 ± 0.18 µM	19.3 ± 1.72 µM	8.76 ± 1.69 µM	9.97 ± 0.59 µM	> 100 µM	3000 µM	2.5 °C	6.4	21.7 ± 0.51 µM	14.7 ± 13.4 µM	65.9 ± 3.66 µM	14.3 ± 0.84 µM	50 µM	12.5 µM	4.8 °C	5.5 °C	43.6 ± 6.45 µM	26.4 ± 13.4 µM	IC50 (NCI-H358 [14]; Homo sapiens, NCI-H358, 72 h): 14.8 ± 0.57 µM
